Measured values as given in patent US7671054B1, “Reverse-turn mimetics and method relating thereto” (Choongwae Pharma Corporation, priority 2001, dated 2010).
Where two headings read alike, the source gives them in different places.

Key:
HCT116 cells = experiment: Growth inhibition assay (MTS); assay type: cell-based; details: Homo sapiens, read-out: Growth Inhibition (GI50, uM) HCT116
How it was run: (§1)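 Cells seeded at 10^4 per well, grown 24 h at 37° C, then exposed to compound at various concentrations for 48 hours. MTS added for 2 h; absorbance at 490 nm gave viability, with cytotoxicity calculated per concentration against pre-treatment reading.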

SW480 cells = experiment: Growth inhibition assay (MTS); assay type: cell-based; details: Homo sapiens
How it was run: as §1

[1] = HCT-116, 48 h, Table 5, HCT116 cells, 48 hours treatment, MTS
[2] = SW480, 48 h, Table 5, SW480 cells, 48 hours treatment, MTS, read-out: Growth Inhibition (GI50, uM) SW480
[3] = HCT-116, Table 5, HCT116 cells, 48 hours treatment, MTS
[4] = Table 5, SW480 cells, 48 hours treatment, MTS, read-out: Growth Inhibition (GI50, uM) SW480

GI50 (HCT116 cells; [1]) [µM]	GI50 (SW480 cells; [2]) [µM]	Compound	also measured
4.7 ± 0.4	11.4 ± 0.9	CN1CC(=O)N2[C@@H](Cc3ccc(O)cc3)C(=O)N(Cc3cccc4c3nnn4C)C[C@@H]2N1C(=O)NCc1ccccc1 [Compound 53]	
15.5 ± 2.3	20.7 ± 2.8	CN1CC(=O)N2[C@@H](Cc3ccc(O)cc3)C(=O)N(Cc3cccc(N4CCCCC4)c3)C[C@@H]2N1C(=O)NCc1ccccc1 [Compound 48]	
4.9 ± 0.7	7.1 ± 0.5	CN1CC(=O)N2[C@@H](Cc3ccc(O)cc3)C(=O)N(Cc3ccc4ncsc4c3)C[C@@H]2N1C(=O)NCc1ccccc1 [Compound 54]	
24.4 ± 1.9	22.8 ± 0.9	C[C@H](c1ccc(F)cc1F)N1C[C@H]2N(C(=O)CN(C)N2C(=O)NCc2ccccc2)[C@@H](Cc2ccc(O)cc2)C1=O [Compound 165]	
0.9 ± 0.1	1.1 ± 0.07	C=CCN1CC(=O)N2[C@@H](Cc3ccc(O)cc3)C(=O)N(Cc3ccc(Cl)c(N(C)C)c3)C[C@@H]2N1C(=O)NCc1ccccc1 [Compound 101]	
2.1	2.7	CN1CC(=O)N2[C@@H](Cc3ccc(O)cc3)C(=O)N(Cc3cccc(C(F)(F)F)c3)C[C@@H]2N1C(=O)NCc1ccccc1 [Compound 14]	
16.9 ± 1.9	47.2 ± 12.1	CC(C)N(C)c1cccc(Cl)c1CN1C[C@H]2N(C(=O)CN(C)N2C(=O)NCc2ccccc2)[C@@H](Cc2ccc(O)cc2)C1=O [Compound 32]	
14.7 ± 1	12.6 ± 0.9	CN1CC(=O)N2[C@@H](Cc3ccc(O)cc3)C(=O)N(Cc3cccc(N4CCOCC4)c3)C[C@@H]2N1C(=O)NCc1ccccc1 [Compound 90]	
		CCOP(=O)(CC(=O)Nc1ccc(C[C@H]2C(=O)N(Cc3cccc4ccccc34)C[C@H]3N2C(=O)CN(C)N3C(=O)NCc2ccccc2)cc1)OCC [Compound 59]	GI50 (HCT116 cells; [3]): 55.1 ± 33.7 µM; GI50 (SW480 cells; Table 5, SW480 cells, the cell prints nM, read-out: Growth Inhibition (GI50) SW480): > 0.05 µM
23.2 ± 2.8	21.2 ± 1.5	C#CCN1CC(=O)N2[C@@H](Cc3ccc(O)cc3)C(=O)N(Cc3ccc4c(c3)OCCN4C)C[C@@H]2N1C(=O)NCc1ccccc1 [Compound 118]	
1.2 ± 0.1	1 ± 0.1	C=CCN1CC(=O)N2[C@@H](Cc3ccc(O)cc3)C(=O)N(Cc3cccc4sc(N5CCOCC5)nc34)C[C@@H]2N1C(=O)NCc1ccccc1 [Compound 189]	
39.1	> 50	CN(C)c1ccc(C[C@H]2C(=O)N(Cc3cccc4ccccc34)C[C@H]3N2C(=O)CN(C)N3C(=O)NCc2ccccc2)cc1 [Compound 43]	
5.8 ± 0.3	3 ± 0.3	CN1CC(=O)N2[C@@H](Cc3ccc(O)cc3)C(=O)N(Cc3cccc4cn(Cc5cccc(N)c5)nc34)C[C@@H]2N1C(=O)NCc1ccccc1 [Compound 66]	
2.06	2.32	CN1CC(=O)N2[C@@H](Cc3ccc(O)cc3)C(=O)N(Cc3ccccc3OC(F)(F)F)C[C@@H]2N1C(=O)NCc1ccccc1 [Compound 5]	
5 ± 0.7	4.7 ± 0.5	CN1CC(=O)N2[C@@H](Cc3ccc(O)cc3)C(=O)N(Cc3cccc4c3cnn4C)C[C@@H]2N1C(=O)NCc1ccccc1 [Compound 35]	
		C=CCN1CC(=O)N2[C@@H](Cc3ccc(OC(=O)NCCN(C)C)cc3)C(=O)N(Cc3ccc(F)cc3F)C[C@@H]2N1C(=O)NCc1ccccc1 [Compound 143]	GI50 (HCT116 cells; HCT-116, 48 h): 1.2 ± 0.1 µM; GI50 (SW480 cells; SW480, 48 h, read-out: Growth Inhibition (GI50, uM) SW480): 1.2 ± 0.1 µM
		CN1CC(=O)N2[C@@H](Cc3ccc(O)cc3)C(=O)N(Cc3ccccc3C(F)(F)F)C[C@@H]2N1C(=O)NCc1ccccc1 [Compound 10]	GI50 (HCT116 cells; [3]): 1.66 µM; GI50 (SW480 cells; [4]): 2.34 µM
28.6 ± 2	> 50	CC(C)N(C)c1cc(CN2C[C@H]3N(C(=O)CN(C)N3C(=O)NCc3ccccc3)[C@@H](Cc3ccc(O)cc3)C2=O)ccc1Cl [Compound 33]	

GI50 (HCT116 cells; [1]) [µM]	GI50 (SW480 cells; [2]) [µM]	Compound	also measured
		C=CCN1CC(=O)N2[C@@H](Cc3ccc(OP(=O)(O)O)cc3)C(=O)N(Cc3ccc4c(c3)OCCO4)C[C@@H]2N1C(=O)NCc1ccccc1 [Compound 182]	GI50 (HCT116 cells; [3]): 0.8 ± 0.1 µM; GI50 (SW480 cells; [4]): 1 ± 0.1 µM
1.3 ± 0.1	1.1 ± 0.1	C=CCN1CC(=O)N2[C@@H](Cc3ccc(O)cc3)C(=O)N(Cc3cccc4sc(-c5ccc(O)cc5)nc34)C[C@@H]2N1C(=O)NCc1ccccc1 [Compound 192]	
10.8	24.7	CC(C)N(C)c1cccc([C@@H](C)N2C[C@H]3N(C(=O)CN(C)N3C(=O)NCc3ccccc3)[C@@H](Cc3ccc(O)cc3)C2=O)c1 [Compound 42]	
1.9 ± 0.2	1.7 ± 0.7	C=CCN1CC(=O)N2[C@@H](Cc3ccc(O)cc3)C(=O)N(Cc3ccc4ncsc4c3)C[C@@H]2N1C(=O)NCc1ccccc1 [Compound 114]	
4.5 ± 0.4	2 ± 0.1	CN1CC(=O)N2[C@@H](Cc3ccc(O)cc3)C(=O)N(Cc3cccc4nn(CCN5CCOCC5)cc34)C[C@@H]2N1C(=O)NCc1ccccc1 [Compound 75]	
23.5 ± 2.7	35.3 ± 4.6	CN(C)CCn1ncc2cccc(CN3C[C@H]4N(C(=O)CN(C)N4C(=O)NCc4ccccc4)[C@@H](Cc4ccc(O)cc4)C3=O)c21 [Compound 62]	
3.4 ± 0.4	3.7 ± 0.4	CCCN1CC(=O)N2[C@@H](Cc3ccc(O)cc3)C(=O)N(Cc3cccc(N4CCOCC4)c3)C[C@@H]2N1C(=O)NCc1ccccc1 [Compound 96]	
1.67	13.8	CN(C)c1cc(Cl)ccc1CN1C[C@H]2N(C(=O)CN(C)N2C(=O)NCc2ccccc2)[C@@H](Cc2ccc(O)cc2)C1=O [Compound 24]	
1.7 ± 0.1	2.8 ± 0.9	C#CCN1CC(=O)N2[C@@H](Cc3ccc(O)cc3)C(=O)N(Cc3ccc(F)cc3F)C[C@@H]2N1C(=O)NCc1ccccc1 [Compound 116]	
7.1 ± 1.2	16.2 ± 2.6	CCN1CC(=O)N2[C@@H](Cc3ccc(O)cc3)C(=O)N(Cc3cccc(N4CCOCC4)c3)C[C@@H]2N1C(=O)NCc1ccccc1 [Compound 95]	
4.3 ± 0.7	4.9 ± 0.7	CCCN1CC(=O)N2[C@@H](Cc3ccc(O)cc3)C(=O)N(Cc3ccc(F)cc3F)C[C@@H]2N1C(=O)NCc1ccccc1 [Compound 127]	
6.9	8.5	C[C@H](c1cccc(N(C)C)c1)N1C[C@H]2N(C(=O)CN(C)N2C(=O)NCc2ccccc2)[C@@H](Cc2ccc(O)cc2)C1=O [Compound 38]	
8.2 ± 0.4	9.1 ± 0.5	C=CCN1CC(=O)N2[C@@H](CN([C@H](C)c3ccc(Cl)c4cccnc34)C(=O)[C@@H]2Cc2ccc(O)cc2)N1C(=O)NCc1ccccc1 [Compound 159]	
1.34	1.68	CN1CC(=O)N2C(CN(Cc3ccccc3Cl)C(=O)[C@@H]2Cc2ccc(O)cc2)N1C(=O)NCc1ccccc1 (some centres unmarked) [Compound 15]	
< 0.4	< 0.4	C=CCN1CC(=O)N2[C@@H](Cc3ccc(O)cc3)C(=O)N(Cc3cccc(OCCN4CCOCC4)c3)C[C@@H]2N1C(=O)NCc1ccccc1 [Compound 104]	
1.17	2.66	C[C@H](c1ccccc1)N1C[C@H]2N(C(=O)CN(C)N2C(=O)NCc2ccccc2)[C@@H](Cc2ccc(O)cc2)C1=O [Compound 19]	
1.9 ± 0.2	2.2 ± 0.3	C=CCN1CC(=O)N2[C@@H](Cc3ccc(O)cc3)C(=O)N(Cc3cccc(N4CCCC4)c3)C[C@@H]2N1C(=O)NCc1ccccc1 [Compound 125]	

Compound	GI50 (HCT116 cells; [1]) [µM]	GI50 (SW480 cells; [2]) [µM]	also measured
C[C@H](c1ccc(F)c(N(C)C)c1)N1C[C@H]2N(C(=O)CN(C)N2C(=O)NCc2ccccc2)[C@@H](Cc2ccc(O)cc2)C1=O [Compound 37]	9.2 ± 0.9	10.4 ± 0.8	
CN1CC(=O)N2[C@@H](Cc3ccc(O)cc3)C(=O)N(Cc3cccc4ccccc34)C[C@@H]2N1C(=O)NCc1ccccc1 [Compound 60]	6.3 ± 2.6	8.3 ± 1.4	
